In ChEMBL document CHEMBL1201862, “PubChem BioAssay data set” (2004):
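Interpolation was linear, between the two tested concentrations surrounding the appropriate level; five concentrations were tested over 48 hours in 96-well plates. GI50: concentration for 50% inhibition of growth.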 Active and inactive are the calls of the source. Rule as the data show it: active = GI50 up to about 1.1 µM and inactive = higher.

How the values were obtained:
Experiment in all cases: NCI anticancer screen, dose series, 48 h
HCT-116 = test system: HCT-116
TK-10 = test system: TK-10
MDA-MB-231 = test system: MDA-MB-231
EKVX = test system: EKVX
CCRF-CEM = test system: CCRF-CEM
SK-MEL-28 = test system: SK-MEL-28
ACHN = test system: ACHN
786-0 = test system: 786-0
SF-268 = test system: SF-268
SNB-19 = test system: SNB-19
SK-OV-3 = test system: SK-OV-3
M14 = test system: M14
NCI-H226 = test system: NCI-H226
COLO 205 = test system: COLO 205
MDA-MB-435 = test system: MDA-MB-435
NCI-H23 = test system: NCI-H23
KM12 = test system: KM12
SNB-75 = test system: SNB-75
SK-MEL-5 = test system: SK-MEL-5
HT-29 = test system: HT-29
SK-MEL-2 = test system: SK-MEL-2
DU-145 = test system: DU-145
MCF7 = test system: MCF7
K562 = test system: K562
RPMI-8226 = test system: RPMI-8226
SW-620 = test system: SW-620
UO-31 = test system: UO-31
UACC-62 = test system: UACC-62
SF-295 = test system: SF-295
A549 = test system: A549
UACC-257 = test system: UACC-257
SR = test system: SR
HOP-62 = test system: HOP-62
MDA-N = test system: MDA-N
HCT-15 = test system: HCT-15
SN12C = test system: SN12C
NCI/ADR-RES = test system: NCI/ADR-RES
OVCAR-4 = test system: OVCAR-4
LOX IMVI = test system: LOX IMVI
MOLT-4 = test system: MOLT-4
Malme-3M = test system: Malme-3M
PC-3 = test system: PC-3
IGROV-1 = test system: IGROV-1
OVCAR-8 = test system: OVCAR-8
OVCAR-3 = test system: OVCAR-3
U-251 = test system: U-251
OVCAR-5 = test system: OVCAR-5
Hs-578T = test system: Hs-578T
HOP-92 = test system: HOP-92
A498 = test system: A498
HL-60 = test system: HL-60
NCI-H522 = test system: NCI-H522
SF-539 = test system: SF-539
CAKI-1 = test system: CAKI-1
HCC 2998 = test system: HCC 2998
NCI-H460 = test system: NCI-H460
T47D = test system: T47D
RXF 393 = test system: RXF 393

Measured: GI50

CC(C)CC1[C@@H](OCc2ccccc2)COS(=O)N1Cc1ccccc1 (stereo not given in full)
inactive: HCT-116 28.2 µM | TK-10 40 µM | MDA-MB-231 20.7 µM | EKVX 38.8 µM | CCRF-CEM 57.1 µM | SK-MEL-28 51.3 µM | ACHN 35 µM | 786-0 31.2 µM | SF-268 32.6 µM | SNB-19 41.7 µM | SK-OV-3 > 100 µM | M14 51.4 µM | NCI-H226 47.1 µM | COLO 205 57 µM | MDA-MB-435 31.5 µM | NCI-H23 39.6 µM | KM12 26.8 µM | SNB-75 21.5 µM | SK-MEL-5 33.5 µM | HT-29 15.6 µM | SK-MEL-2 31 µM | DU-145 35.6 µM | MCF7 41.9 µM | K562 39.4 µM | RPMI-8226 20.8 µM | SW-620 39.8 µM | UO-31 34.6 µM | UACC-62 60 µM | SF-295 46.2 µM | A549 46.6 µM | UACC-257 30.7 µM | SR 19.9 µM | HOP-62 56.6 µM | MDA-N 52.8 µM | SN12C 57.8 µM | NCI/ADR-RES 49.4 µM | OVCAR-4 44.2 µM | LOX IMVI 24.8 µM | MOLT-4 37 µM | Malme-3M 23.3 µM | PC-3 30.1 µM | IGROV-1 31 µM | OVCAR-8 39 µM | OVCAR-3 54.2 µM | U-251 29.9 µM | OVCAR-5 > 100 µM | Hs-578T 23.9 µM
30.8 µM: HCT-15

COC1CC(COCc2ccccc2)CC(OC)O1 (stereo not given)
> 100 µM: HCT-15
active: CCRF-CEM 0.0198 µM | HL-60 < 0.01 µM
inactive: HCT-116 > 100 µM | HOP-92 > 100 µM | TK-10 > 100 µM | EKVX > 100 µM | ACHN > 100 µM | 786-0 > 100 µM | SF-268 > 100 µM | A498 > 100 µM | SK-OV-3 > 100 µM | M14 > 100 µM | NCI-H226 > 100 µM | COLO 205 > 100 µM | NCI-H522 > 100 µM | MDA-MB-435 > 100 µM | NCI-H23 > 100 µM | KM12 > 100 µM | SNB-75 > 100 µM | SK-MEL-5 > 100 µM | SF-539 > 100 µM | HT-29 > 100 µM | DU-145 > 100 µM | MCF7 > 100 µM | K562 > 100 µM | RPMI-8226 > 100 µM | SW-620 > 100 µM | CAKI-1 > 100 µM | UO-31 > 100 µM | UACC-62 > 100 µM | SF-295 > 100 µM | A549 > 100 µM | UACC-257 > 100 µM | SR > 100 µM | HOP-62 > 100 µM | HCC 2998 > 100 µM | MDA-N > 100 µM | SN12C > 100 µM | NCI-H460 > 100 µM | NCI/ADR-RES > 100 µM | LOX IMVI 64 µM | MOLT-4 > 100 µM | T47D > 100 µM | RXF 393 > 100 µM | OVCAR-8 > 100 µM | OVCAR-3 > 100 µM | OVCAR-5 > 100 µM | Hs-578T > 100 µM

CC1(C)CC(=O)C2=C(C1)OC1=C(C(=O)CC(C)(C)C1)C2CC(c1ccccc1)c1ccc(O)c(O)c1O (stereo not given)
inactive: HCT-116 8.81 µM | HOP-92 5.18 µM | TK-10 > 10 µM | MDA-MB-231 8.91 µM | EKVX > 10 µM | ACHN > 10 µM | SF-268 > 10 µM | SNB-19 > 10 µM | M14 9.91 µM | NCI-H226 > 10 µM | MDA-MB-435 8.13 µM | NCI-H23 5.9 µM | KM12 3.41 µM | SNB-75 3.05 µM | SK-MEL-5 5.68 µM | SF-539 > 10 µM | HT-29 3.04 µM | DU-145 > 10 µM | SW-620 3.36 µM | CAKI-1 5.11 µM | UO-31 > 10 µM | SF-295 3.96 µM | A549 3.73 µM | MDA-N > 10 µM | SN12C > 10 µM | NCI/ADR-RES > 10 µM | OVCAR-4 6.38 µM | PC-3 2.87 µM | RXF 393 > 10 µM | IGROV-1 > 10 µM | OVCAR-8 > 10 µM | OVCAR-3 3.54 µM | U-251 > 10 µM | OVCAR-5 > 10 µM
4.18 µM: HCT-15

O=C(CSCC(=O)N/N=C\c1ccc(F)cc1F)N/N=C\c1ccc(F)cc1F
> 100 µM: HCT-15
inactive: HCT-116 > 100 µM | HOP-92 > 100 µM | TK-10 > 100 µM | MDA-MB-231 > 100 µM | EKVX > 100 µM | CCRF-CEM > 100 µM | SK-MEL-28 > 100 µM | ACHN > 100 µM | 786-0 > 100 µM | SF-268 > 100 µM | SNB-19 > 100 µM | A498 > 100 µM | SK-OV-3 > 100 µM | M14 > 100 µM | NCI-H226 > 100 µM | HL-60 > 100 µM | COLO 205 > 100 µM | NCI-H522 > 100 µM | MDA-MB-435 > 100 µM | NCI-H23 > 100 µM | KM12 > 100 µM | SNB-75 > 100 µM | SK-MEL-5 > 100 µM | SF-539 > 100 µM | HT-29 > 100 µM | SK-MEL-2 > 100 µM | DU-145 > 100 µM | MCF7 > 100 µM | RPMI-8226 > 100 µM | SW-620 > 100 µM | CAKI-1 > 100 µM | UO-31 > 100 µM | UACC-62 > 100 µM | SF-295 > 100 µM | A549 > 100 µM | UACC-257 > 100 µM | SR > 100 µM | HOP-62 > 100 µM | HCC 2998 > 100 µM | SN12C > 100 µM | NCI-H460 > 100 µM | NCI/ADR-RES > 100 µM | OVCAR-4 > 100 µM | LOX IMVI > 100 µM | MOLT-4 > 100 µM | Malme-3M > 100 µM | T47D > 100 µM | RXF 393 > 100 µM | IGROV-1 > 100 µM | OVCAR-8 > 100 µM | OVCAR-3 > 100 µM | U-251 > 100 µM | Hs-578T > 100 µM

COC(=O)c1ccccc1/C=C1\Cc2cc(C)cc(C)c2C1=O
> 100 µM: HCT-15
inactive: HCT-116 > 100 µM | TK-10 > 100 µM | MDA-MB-231 > 100 µM | EKVX > 100 µM | CCRF-CEM > 100 µM | SK-MEL-28 > 100 µM | ACHN > 100 µM | 786-0 57.4 µM | SF-268 > 100 µM | SNB-19 72.4 µM | A498 > 100 µM | NCI-H226 > 100 µM | HL-60 > 100 µM | NCI-H522 5.46 µM | NCI-H23 > 100 µM | KM12 > 100 µM | SNB-75 72.4 µM | SK-MEL-5 > 100 µM | SF-539 > 100 µM | HT-29 > 100 µM | SK-MEL-2 > 100 µM | DU-145 > 100 µM | MCF7 > 100 µM | K562 > 100 µM | RPMI-8226 > 100 µM | SW-620 > 100 µM | UACC-62 53.5 µM | SF-295 > 100 µM | A549 > 100 µM | UACC-257 > 100 µM | SR > 100 µM | HOP-62 37.2 µM | HCC 2998 > 100 µM | MDA-N > 100 µM | SN12C > 100 µM | NCI-H460 > 100 µM | LOX IMVI > 100 µM | MOLT-4 > 100 µM | Malme-3M > 100 µM | T47D > 100 µM | PC-3 > 100 µM | RXF 393 > 100 µM | IGROV-1 > 100 µM | OVCAR-8 > 100 µM | OVCAR-3 > 100 µM | U-251 > 100 µM | OVCAR-5 > 100 µM | Hs-578T > 100 µM
